Experimental findings from patent publication US20240132431A1, “METHOD FOR ALKYLATING ACIDIC FUNCTIONAL GROUP” (Chugai Seiyaku Kabushiki Kaisha, priority 2021, published 2024) are described below.

The experiment concerns the target T1, Bcl-2 protein (Recombinant Human Bcl-2 Protein) (Homo sapiens, UniProt P10415).
T1 construct: purchased Novus NBP2-34889
In words: Binding evaluation of mixture library compounds to Bcl-2 using AS-MS (affinity selection mass spectrometry). Conditions: for ASMS ratio (%) n = 1 / ASMS ratio (%) n = 2: ASMS Ratio(%)=(A−C)/B×100; for ASMS ratio (%) n = 1: replicate n = 1; for ASMS ratio (%) n = 2: replicate n = 2. The procedure, abridged: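 Readout is ASMS Ratio (%), (A−C)/B×100, from reversed-phase LC/MS of SEC-passed extracts, with protein-free unfiltered standard (B) and protein-free SEC blank (C). Recombinant human Bcl-2 at 20 μM final met ~1200 pooled compounds at […] each for 1 h, 23° C., dark, in Tris-HCl pH 7.4 buffer.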

Setting [1] is: AS-MS, mixture of 1200 compounds, Bcl-2.
The mark [2] stands for this setting: AS-MS on the mixture of 1200 library compounds.

T1 sequence (P10415 whole entry): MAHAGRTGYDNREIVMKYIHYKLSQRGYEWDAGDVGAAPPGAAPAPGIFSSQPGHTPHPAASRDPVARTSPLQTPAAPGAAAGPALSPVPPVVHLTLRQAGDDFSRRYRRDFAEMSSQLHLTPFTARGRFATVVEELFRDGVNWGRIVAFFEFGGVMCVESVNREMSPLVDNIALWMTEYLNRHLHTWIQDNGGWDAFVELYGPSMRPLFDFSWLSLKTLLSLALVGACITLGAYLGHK

On to `CCOc1cccc(-c2ccc(C(C)N3CCN(c4ccc(C(=O)NS(=O)(=O)CCC(F)(F)F)cc4)CC3)c(F)c2)c1` (stereo not shown) [B2N099-01, 4-[4-[1-[4-(3-Ethoxyphenyl)-2-fluorophenyl]ethyl]piperazin-1-yl]-N-(3,3,3-trifluoropropylsulfonyl)benzamide], for which the “ASMS ratio (%)” value amounted to 0.0% (n = 1) and 0.0% (n = 2).

On to “6-[4-[[4-(5-Ethoxypyridin-3-yl)-2,6-dimethoxyphenyl]methyl]piperazin-1-yl]-N-propylpyridazine-3-carboxamide [B1M023-01]”, for which, under setting [1], the “ASMS ratio (%) n = 1” value was 1.4% and the “ASMS ratio (%) n = 2” value is −3.0%.

As to `CCOc1cncc(-c2ccc(C(=O)N3CCN(c4ccc(C(=O)Nc5ccc(OC)cc5)nn4)CC3)cc2F)c1` [B1O006-01, 6-[4-[4-(5-Ethoxypyridin-3-yl)-3-fluorobenzoyl]piperazin-1-yl]-N-(4-methoxyphenyl)pyridazine-3-carboxamide], under setting [2], the “ASMS ratio (%) n = 1” value is 4.7% and the “ASMS ratio (%) n = 2” value came to 0.8%.

As to `CCOc1cncc(-c2ccc(CN3CCN(c4ccc(C(=O)NS(=O)(=O)c5ccc(NCCSc6ccccc6)c(C(F)(F)F)c5)cc4)CC3)c(OC)c2)c1` [B2R054-01, 4-[4-[[4-(5-Ethoxypyridin-3-yl)-2-methoxyphenyl]methyl]piperazin-1-yl]-N-[4-(2-phenylsulfanylethylamino)-3-(trifluoromethyl)phenyl]sulfonylbenzamide], the “ASMS ratio (%)” value runs as follows: (n = 1) 3.3%; (n = 2) −0.8%.

In the case of `CCOc1cncc(-c2cc(CN3CCN(c4ccc(C(=O)Nc5ccc(OC)cc5)nn4)CC3)cc(OC(C)C)c2)c1` [B1O084-01], under setting [2], the “ASMS ratio (%) n = 1” value turned out to be 6.8% and the “ASMS ratio (%) n = 2” value was 2.0%.

Regarding `CCOc1cccc(-c2ccc(CN3CCN(c4ccc(C(=O)N(C)CC56CC7CC(CC(C7)C5)C6)cc4)CC3)cc2F)c1` [B3A051-01, N-(1-Adamantylmethyl)-4-[4-[[4-(3-ethoxyphenyl)-3-fluorophenyl]methyl]piperazin-1-yl]-N-methylbenzamide], under setting [2], the “ASMS ratio (%) n = 1” value is 21.3% and the “ASMS ratio (%) n = 2” value is listed as −4.2%.

`CCOc1cncc(-c2ccccc2CCC(=O)N2CCN(c3ccc(C(=O)NS(C)(=O)=O)nn3)CC2)c1` [B2I012-01, 6-[4-[3-[2-(5-Ethoxypyridin-3-yl)phenyl]propanoyl]piperazin-1-yl]-N-methylsulfonylpyridazine-3-carboxamide]: where the note is “AS-MS, mixture library, Bcl-2”, the “ASMS ratio (%) n = 1” value was −4.0% and the “ASMS ratio (%) n = 2” value is −0.2%.

`CCOc1cncc(-c2cc(OC)c(CN3CCN(c4ccc(C(=O)N(CC)CC)nn4)CC3)c(OC)c2)c1` [B4J086-01, 6-[4-[[4-(5-Ethoxypyridin-3-yl)-2,6-dimethoxyphenyl]methyl]piperazin-1-yl]-N,N-diethylpyridazine-3-carboxamide]: for the setting “AS-MS, mixture library, Bcl-2”, the “ASMS ratio (%) n = 1” value was 0.0% and the “ASMS ratio (%) n = 2” value came to 0.0%.

As to `CCOc1cccc(-c2ccc(CN3CCN(c4ccc(C(=O)NCC56CC7CC(CC(C7)C5)C6)nn4)CC3)cc2F)c1` [B1A077-01, N-(1-Adamantylmethyl)-6-[4-[[4-(3-ethoxyphenyl)-3-fluorophenyl]methyl]piperazin-1-yl]pyridazine-3-carboxamide], under setting [1], the “ASMS ratio (%) n = 1” value came out at 6.6% and the “ASMS ratio (%) n = 2” value is given as −1.3%.

Regarding `CCOc1cccc(-c2cc(OC)c(CN3CCN(c4ccc(C(=O)NCC(F)(F)F)nn4)CC3)c(OC)c2)c1` [B1K085-01], under setting [1], the “ASMS ratio (%) n = 1” value is given as 4.2% and the “ASMS ratio (%) n = 2” value is recorded as −0.2%.

Take `CCOc1cncc(C#Cc2ccccc2C(=O)N2CCN(c3ccc(C(=O)N(CC)CC)nn3)CC2)c1` [B4J008-01, 6-[4-[2-[2-(5-Ethoxypyridin-3-yl)ethynyl]benzoyl]piperazin-1-yl]-N,N-diethylpyridazine-3-carboxamide]: under setting [2], the “ASMS ratio (%) n = 1” value turned out to be 0.0% and the “ASMS ratio (%) n = 2” value is 0.0%.

“4-[4-[1-[4-(3-Ethoxyphenyl)phenyl]ethyl]piperazin-1-yl]-N-propylbenzamide [B1M003-01]”: under setting [1], the “ASMS ratio (%) n = 1” value is reported as −1.9% and the “ASMS ratio (%) n = 2” value is on record as 2.0%.

Turning to `CCOc1cncc(C#Cc2ccccc2C(=O)N2CCN(c3ccc(C(=O)NS(=O)(=O)CCC(F)(F)F)cc3)CC2)c1` [B2N030-01, 4-[4-[2-[2-(5-Ethoxypyridin-3-yl)ethynyl]benzoyl]piperazin-1-yl]-N-(3,3,3-trifluoropropylsulfonyl)benzamide], the “ASMS ratio (%)” value (n = 1) is on record as 0.0% and the “ASMS ratio (%)” value (n = 2) worked out at 0.0%.

For the compound `CCOc1cncc(-c2ccc(C(=O)N3CCN(c4ccc(C(=O)N(C)CC56CC7CC(CC(C7)C5)C6)cc4)CC3)cc2C)c1` [B3A026-01, N-(1-Adamantylmethyl)-4-[4-[4-(5-ethoxypyridin-3-yl)-3-methylbenzoyl]piperazin-1-yl]-N-methylbenzamide], under setting [2], the “ASMS ratio (%) n = 1” value was determined as 4.4% and the “ASMS ratio (%) n = 2” value was found to be 0.6%.

Turning to `CCOc1cncc(-c2ccccc2CN2CCN(c3ccc(C(=O)NS(=O)(=O)CC45CC6CC(CC(C6)C4)C5)nn3)CC2)c1` [B2A072-01], where the note is “AS-MS, mixture library, Bcl-2”, the “ASMS ratio (%) n = 1” value was 12.2% and the “ASMS ratio (%) n = 2” value stood at 14.7%.

`CCOc1cncc(-c2cc(C(=O)N3CCN(c4ccc(C(=O)NCC56CC7CC(CC(C7)C5)C6)nn4)CC3)cc(C(F)(F)F)c2)c1` [B1A018-01, N-(1-Adamantylmethyl)-6-[4-[3-(5-ethoxypyridin-3-yl)-5-(trifluoromethyl)benzoyl]piperazin-1-yl]pyridazine-3-carboxamide]: under setting [1], the “ASMS ratio (%) n = 1” value is listed as −6.5% and the “ASMS ratio (%) n = 2” value stood at 9.9%.

With `CCOc1cncc(-c2cc(CN3CCN(c4ccc(C(=O)NS(C)(=O)=O)nn4)CC3)cc(C(F)(F)F)c2)c1` [B2I088-01, 6-[4-[[3-(5-Ethoxypyridin-3-yl)-5-(trifluoromethyl)phenyl]methyl]piperazin-1-yl]-N-methylsulfonylpyridazine-3-carboxamide], the “ASMS ratio (%)” value came out at 0.0% (n = 1) and 0.0% (n = 2).

In the case of `CCOc1cccc(C#Cc2cc(C(=O)N3CCN(c4ccc(C(=O)NCC56CC7CC(CC(C7)C5)C6)cc4)CC3)cc(C(F)(F)F)c2)c1` [B1A041-01, N-(1-Adamantylmethyl)-4-[4-[3-[2-(3-ethoxyphenyl)ethynyl]-5-(trifluoromethyl)benzoyl]piperazin-1-yl]benzamide], under setting [1], the “ASMS ratio (%) n = 1” value is recorded as −2.4% and the “ASMS ratio (%) n = 2” value is −4.0%.

Consider `CCOc1cncc(C#Cc2ccccc2C(=O)N2CCN(c3ccc(C(=O)NS(=O)(=O)CC45CC6CC(CC(C6)C4)C5)nn3)CC2)c1` [B2A008-01, N-(1-Adamantylmethylsulfonyl)-6-[4-[2-[2-(5-ethoxypyridin-3-yl)ethynyl]benzoyl]piperazin-1-yl]pyridazine-3-carboxamide], for which, where the note is “AS-MS, mixture library, Bcl-2”, the “ASMS ratio (%) n = 1” value is given as 3.1% and the “ASMS ratio (%) n = 2” value was 7.2%.

As to `CCOc1cncc(-c2ccc(C(=O)N3CCN(c4ccc(C(=O)NS(=O)(=O)c5ccc(NCCSc6ccccc6)c([N+](=O)[O-])c5)nn4)CC3)c3ccccc23)c1` [B2Q014-01, 6-[4-[4-(5-Ethoxypyridin-3-yl)naphthalene-1-carbonyl]piperazin-1-yl]-N-[3-nitro-4-(2-phenylsulfanylethylamino)phenyl]sulfonylpyridazine-3-carboxamide], where the note is “AS-MS, mixture library, Bcl-2”, the “ASMS ratio (%) n = 1” value is given as 9.3% and the “ASMS ratio (%) n = 2” value came out at 14.5%.

On to `CCOc1cncc(-c2cc(CN3CCN(c4ccc(C(=O)NS(=O)(=O)c5ccc(NCCSc6ccccc6)c(C(F)(F)F)c5)cc4)CC3)cc(C(F)(F)F)c2)c1` [B2R062-01, 4-[4-[[3-(5-Ethoxypyridin-3-yl)-5-(trifluoromethyl)phenyl]methyl]piperazin-1-yl]-N-[4-(2-phenylsulfanylethylamino)-3-(trifluoromethyl)phenyl]sulfonylbenzamide], for which the “ASMS ratio (%)” value is reported as 0.0% (n = 1) and 0.0% (n = 2).

With `CCOc1cncc(-c2cc(OC)c(CN3CCN(c4ccc(C(=O)NCC(F)(F)F)nn4)CC3)c(OC)c2)c1` [B1K086-01, 6-[4-[[4-(5-Ethoxypyridin-3-yl)-2,6-dimethoxyphenyl]methyl]piperazin-1-yl]-N-(2,2,2-trifluoroethyl)pyridazine-3-carboxamide], the “ASMS ratio (%) n = 2” value under setting [1] is reported as 0.0%.

In the case of `CCOc1cncc(-c2cc(CN3CCN(c4ccc(C(=O)NCC(F)(F)F)cc4)CC3)cc(OC(F)(F)F)c2)c1` [B1K064-01, 4-[4-[[3-(5-Ethoxypyridin-3-yl)-5-(trifluoromethoxy)phenyl]methyl]piperazin-1-yl]-N-(2,2,2-trifluoroethyl)benzamide], under setting [1], the “ASMS ratio (%) n = 1” value was determined as 1.4% and the “ASMS ratio (%) n = 2” value was found to be 0.7%.

As for `CCOc1cncc(-c2ccccc2CCC(=O)N2CCN(c3ccc(C(=O)NS(C)(=O)=O)cc3)CC2)c1` [B2I034-01, 4-[4-[3-[2-(5-Ethoxypyridin-3-yl)phenyl]propanoyl]piperazin-1-yl]-N-methylsulfonylbenzamide], where the note is “AS-MS, mixture library, Bcl-2”, the “ASMS ratio (%) n = 1” value was 0.0% and the “ASMS ratio (%) n = 2” value is given as 1.6%.

`CCOc1cccc(-c2cc(C(=O)N3CCN(c4ccc(C(=O)NCC56CC7CC(CC(C7)C5)C6)cc4)CC3)cc(C(F)(F)F)c2)c1` [B1A039-01, N-(1-Adamantylmethyl)-4-[4-[3-(3-ethoxyphenyl)-5-(trifluoromethyl)benzoyl]piperazin-1-yl]benzamide]: under setting [1], the “ASMS ratio (%) n = 1” value is reported as 6.3% and the “ASMS ratio (%) n = 2” value was −8.4%.
